Key:
[1] = molecular target: CDK2/Cyclin E1 (Homo sapiens (Human), UniProt P24941); assay: biochemical; settings: CDK2_Ki (nM), phosphorylated CDK2/Cyclin E1, 150 μM ATP, Morrison tight-binding fit
Description: The assay was initiated with the addition of ATP, following a fifteen minutes pre-incubation of enzyme and inhibitor at room temperature in the reaction mixture. The reaction was stopped after 45 minutes at room temperature by the addition of 50 μL of 80 mM EDTA, pH 7.5.

[2] = molecular target: CDK6/Cyclin D1 (Homo sapiens (Human), UniProt Q00534); assay: biochemical; settings: CDK6_Ki (nM), non-phosphorylated CDK6/Cyclin D1, 2 mM ATP, Morrison fit
Chain of CDK6/Cyclin D1 (Q00534 whole entry): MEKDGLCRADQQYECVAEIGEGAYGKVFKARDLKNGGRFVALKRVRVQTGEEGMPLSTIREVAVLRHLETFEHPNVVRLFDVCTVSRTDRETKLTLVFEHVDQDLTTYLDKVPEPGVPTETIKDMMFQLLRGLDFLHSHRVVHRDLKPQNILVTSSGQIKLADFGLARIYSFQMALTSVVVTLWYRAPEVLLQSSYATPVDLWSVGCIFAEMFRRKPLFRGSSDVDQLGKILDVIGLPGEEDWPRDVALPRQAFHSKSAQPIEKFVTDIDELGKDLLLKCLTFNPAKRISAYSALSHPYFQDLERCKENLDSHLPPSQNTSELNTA
Chain of CDK6/Cyclin D1 (P24385 whole entry partner): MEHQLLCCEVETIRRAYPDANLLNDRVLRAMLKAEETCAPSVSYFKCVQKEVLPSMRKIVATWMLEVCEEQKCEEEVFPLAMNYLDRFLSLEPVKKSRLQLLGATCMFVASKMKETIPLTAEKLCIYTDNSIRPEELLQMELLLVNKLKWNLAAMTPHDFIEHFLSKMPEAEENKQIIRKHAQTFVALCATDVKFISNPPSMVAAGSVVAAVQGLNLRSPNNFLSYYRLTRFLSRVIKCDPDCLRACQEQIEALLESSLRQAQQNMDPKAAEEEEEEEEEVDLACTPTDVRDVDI

Row | Structure (SMILES) | Ki [1] [nM] | Ki [2] [nM]
1 | COC(C)(C)CNS(=O)(=O)N1CCC(Nc2ncc3cc(C)c(=O)n([C@@H]4CCC[C@@]4(C)O)c3n2)CC1 (single isomer, unassigned) [Example 98, (−)-4-({8-[(1R*,2R*)-2-hydroxy-2-methylcyclopentyl]-6-methyl-7-oxo-7,8-dihydropyrido[2,3-d]pyrimidin-2-yl}amino)-N-(2-methoxy-2-methylpropyl)piperidine-1-sulfonamide] | 0.33 | 0.74
2 | CC1(C)CC(Nc2ncc3cc(CCO)c(=O)n(C4CCCC4)c3n2)CCN1S(C)(=O)=O (single isomer, unassigned; (+)) [Example 162, (+)-8-cyclopentyl-2-{[2,2-dimethyl-1-(methylsulfonyl)piperidin-4-yl]amino}-6-(2-hydroxyethyl)pyrido[2,3-d]pyrimidin-7(8H)-one] | 3.92 | 12.3
3 | CS(=O)(=O)N1CCC(Nc2ncc3cc(C(F)(F)C(=O)O)c(=O)n(C4CCCC4)c3n2)CC1 [Example 31, (8-cyclopentyl-2-{[1-(methylsulfonyl)piperidin-4-yl]amino}-7-oxo-7,8-dihydropyrido[2,3-d]pyrimidin-6-yl)(difluoro)acetic acid] | 2.43 | 0.87
4 | C[C@]1(O)CCC[C@@H]1n1c(=O)ccc2cnc(NC3CCN(S(=O)(=O)CC(F)(F)F)CC3)nc21 (single isomer, unassigned) [Example 87, (+)-8-[(1R*,2R*)-2-hydroxy-2-methylcyclopentyl]-2-({1-[(2,2,2-trifluoroethyl)sulfonyl]piperidin-4-yl}amino)pyrido[2,3-d]pyrimidin-7(8H)-one] | 4.38 | 8.23
5 | CS(=O)(=O)N1CC[C@H](Nc2ncc3cc(N)c(=O)n(C4CCCC4)c3n2)[C@H](F)C1 (single isomer, unassigned; isomer b) [Example 150, 6-amino-8-cyclopentyl-2-{[(3R*,4S*)-3-fluoro-1-(methylsulfonyl)piperidin-4-yl]amino}pyrido[2,3-d]pyrimidin-7(8H)-one-Isomer B] | 2.63 | 1.32
6 | CCS(=O)(=O)N1CCC(Nc2ncc3ccc(=O)n([C@H]4CCC[C@]4(C)O)c3n2)CC1 (single isomer, unassigned) [Example 77, (+)-2-{[1-(ethylsulfonyl)piperidin-4-yl]amino}-8-[(1R*,2R*)-2-hydroxy-2-methylcyclopentyl]pyrido[2,3-d]pyrimidin-7(8H)-one] | 4.07 | 6.6
7 | CC[C@]1(O)CCC[C@@H]1n1c(=O)ccc2cnc(NC3CCN(S(C)(=O)=O)CC3)nc21 (single isomer, unassigned) [Example 194, (+)-(8-[(1R*,2R*)-2-ethyl-2-hydroxycyclopentyl]-2-{[1-(methylsulfonyl)piperidin-4-yl]amino}pyrido[2,3-d]pyrimidin-7(8H)-one] | 4.01 | 5.37
8 | CS(=O)(=O)N1CCC(Nc2ncc3cc(C(F)F)c(=O)n([C@@H]4CC[C@@H](O)C4)c3n2)CC1 (single isomer, unassigned) [Example 133, (−)-6-(difluoromethyl)-8-[(1R*,3R*)-3-hydroxycyclopentyl]-2-{[1-(methylsulfonyl)piperidin-4-yl]amino}pyrido[2,3-d]pyrimidin-7(8H)-one] | 2.37 | 0.94
9 | CS(=O)(=O)N1CCC(Nc2ncc3cc(C(F)F)c(=O)n([C@H]4CC[C@H](O)C4)c3n2)CC1 (relative stereo) [Example 134, (+)-6-(difluoromethyl)-8-[(1R*,3R*)-3-hydroxycyclopentyl]-2-{[1-(methylsulfonyl)piperidin-4-yl]amino}pyrido[2,3-d]pyrimidin-7(8H)-one] | 1.25 | 0.53
10 | CCS(=O)(=O)N1CCC(Nc2ncc3ccc(=O)n(C4CCCC4)c3n2)CC1 [Example 16, 8-cyclopentyl-2-{[1-(ethylsulfonyl)piperidin-4-yl]amino}pyrido[2,3-d]pyrimidin-7(8H)-one] | 0.48 | 1.14
11 | CCc1cc2cnc(NC3CCN(S(C)(=O)=O)CC3)nc2n(C2CCCC2)c1=O [Example 141, 8-cyclopentyl-6-ethyl-2-{[1-(methylsulfonyl)piperidin-4-yl]amino}pyrido[2,3-d]pyrimidin-7(8H)-one] | 1.25 | 0.37
12 | C[C@H]1[C@H](O)CC[C@H]1n1c(=O)ccc2cnc(NC3CCN(S(C)(=O)=O)CC3)nc21 (single isomer, unassigned) [Example 210, (−)-8-[(1R*,2R*,3R*)-3-hydroxy-2-methylcyclopentyl]-2-{[1-(methylsulfonyl)piperidin-4-yl]amino}pyrido[2,3-d]pyrimidin-7(8H)-one] | 5.36 | 3.15
13 | CS(=O)(=O)N1CCC(Nc2ncc3ccc(=O)n([C@@H]4C[C@@H](O)CC[C@H]4F)c3n2)CC1 (single isomer, unassigned) [Example 218, (−)-8-[(1S*,2S*,5R*)-2-fluoro-5-hydroxycyclohexyl]-2-{[1-(methylsulfonyl)piperidin-4-yl]amino}pyrido[2,3-d]pyrimidin-7(8H)-one] | 6.28 | 14.3
14 | Cc1cc2cnc(NC3CCN(S(=O)(=O)C(F)(F)F)CC3)nc2n([C@H]2CCC[C@]2(C)O)c1=O (single isomer, unassigned) [Example 182, (+)-8-[(1R*,2R*)-2-hydroxy-2-methylcyclopentyl]-6-methyl-2-({1-[(trifluoromethyl)sulfonyl]piperidin-4-yl}amino)pyrido[2,3-d]pyrimidin-7(8H)-one] | 12.6 | 9.5
15 | CS(=O)(=O)N1CCC(Nc2ncc3cc(CC(N)=O)c(=O)n([C@@H]4CCC[C@@H](O)C4)c3n2)CC1 (single isomer, unassigned) [Example 213, (+)-2-(8-[(1R*,3R*)-3-hydroxycyclohexyl]-2-{[1-(methylsulfonyl)piperidin-4-yl]amino}-7-oxo-7,8-dihydropyrido[2,3-d]pyrimidin-6-yl)acetamide] | 1.73 | 9.15

Now those with a lower Ki [1], led by results:

Row | Ki [1] [nM] | Ki [2] [nM] | Structure (SMILES)
16 | 0.1 | 1.21 | Cn1cc(S(=O)(=O)N2CCC(Nc3ncc4ccc(=O)n([C@@H]5CCC[C@@]5(C)O)c4n3)CC2)cn1 (single isomer, unassigned) [Example 82, (−)-8-[(1R*,2R*)-2-hydroxy-2-methylcyclopentyl]-2-({1-[(1-methyl-1H-pyrazol-4-yl)sulfonyl]piperidin-4-yl}amino)pyrido[2,3-d]pyrimidin-7(8H)-one]
17 | 0.29 | 7 | NS(=O)(=O)N1CCC(Nc2ncc3ccc(=O)n(C4CCCCCC4)c3n2)CC1 [Example 21, 4-[(8-cycloheptyl-7-oxo-7,8-dihydropyrido[2,3-d]pyrimidin-2-yl)amino]piperidine-1-sulfonamide]
18 | 0.12 | 1.24 | Cc1cc2cnc(NC3CCN(S(=O)(=O)C4CC4)CC3)nc2n([C@@H]2CCC[C@@]2(C)O)c1=O (single isomer, unassigned) [Example 112, (−)-2-{[1-(cyclopropylsulfonyl)piperidin-4-yl]amino}-8-[(1R*,2R*)-2-hydroxy-2-methylcyclopentyl]-6-methylpyrido[2,3-d]pyrimidin-7(8H)-one]
19 | 0.25 | 0.88 | C[C@@]1(O)CCC[C@H]1n1c(=O)ccc2cnc(NC3CCN(S(=O)(=O)CC4CC4)CC3)nc21 (single isomer, unassigned) [Example 90, (−)-2-({1-[(cyclopropylmethyl)sulfonyl]piperidin-4-yl}amino)-8-[(1R*,2R*)-2-hydroxy-2-methylcyclopentyl]pyrido[2,3-d]pyrimidin-7(8H)-one]
20 | 0.14 | 0.77 | Cc1cc2cnc(NC3CCN(S(=O)(=O)NCC(C)(F)F)CC3)nc2n([C@@H]2CCC[C@@]2(C)O)c1=O (single isomer, unassigned) [Example 104, (−)-N-(2,2-difluoropropyl)-4-({8-[(1R*,2R*)-2-hydroxy-2-methylcyclopentyl]-6-methyl-7-oxo-7,8-dihydropyrido[2,3-d]pyrimidin-2-yl}amino)piperidine-1-sulfonamide]
21 | 0.27 | 1.09 | C[C@H]1CCC[C@H]1n1c(=O)c(CC(N)=O)cc2cnc(NC3CCN(S(C)(=O)=O)CC3)nc21 [Example 47, 2-(8-[(1R,2S)-2-methylcyclopentyl]-2-{[1-(methylsulfonyl)piperidin-4-yl]amino}-7-oxo-7,8-dihydropyrido[2,3-d]pyrimidin-6-yl)acetamide]
22 | 0.15 | 0.21 | Cc1cc2cnc(NC3CCN(S(=O)(=O)CC4CC4)CC3)nc2n([C@@H]2CCC[C@@]2(C)O)c1=O (single isomer, unassigned) [Example 116, (−)-2-({1-[(cyclopropylmethyl)sulfonyl]piperidin-4-yl}amino)-8-[(1R*,2R*)-2-hydroxy-2-methylcyclopentyl]-6-methylpyrido[2,3-d]pyrimidin-7(8H)-one]
23 | 0.17 | 0.43 | CNS(=O)(=O)N1CCC(Nc2ncc3cc(C(F)F)c(=O)n([C@@H]4CCC[C@@]4(C)O)c3n2)CC1 (single isomer, unassigned) [Example 130, (−)-4-({6-(difluoromethyl)-8-[(1R*,2R*)-2-hydroxy-2-methylcyclopentyl]-7-oxo-7,8-dihydropyrido[2,3-d]pyrimidin-2-yl}amino)-N-methylpiperidine-1-sulfonamide]
24 | 0.06 | 0.06 | Cc1cc2cnc(NC3CCN(S(C)(=O)=O)CC3)nc2n([C@@H]2CCC[C@@H]2C)c1=O [Example 37, 6-methyl-8-[(1R,2S)-2-methylcyclopentyl]-2-{[1-(methylsulfonyl)piperidin-4-yl]amino}pyrido[2,3-d]pyrimidin-7(8H)-one]
25 | 0.22 | 0.23 | Cc1cc2cnc(NC3CCN(S(N)(=O)=O)CC3)nc2n(C2CCCC2)c1=O [Example 25, 4-[(8-cyclopentyl-6-methyl-7-oxo-7,8-dihydropyrido[2,3-d]pyrimidin-2-yl)amino]piperidine-1-sulfonamide]

From US10233188B2, “CDK2/4/6 inhibitors” (priority 2016, dated 2019)
